Results reported in publication PMC10613275 (Scientific Reports, 2023).
“Also recorded” adds a separate entry of the source.

Key:
[1] = Intestinal absorption, Caco-2 intestinal barrier model in vitro; assay type: in vitro ADME, human; conditions: human
Caco-2 cells = test: as above; assay type: in vitro ADME, human; conditions: lilial 1 mM, 4 h
androgen receptor = test: Androgenic activity, transactivation luciferase assay in MDA-kb2; conditions: 1 nm–100 µM, MDA-kb2
Text: Results were expressed as fold induction (FI), i.e. fold increase compared to vehicle control. According to EPA[28], FI of positive control should be above 4 to meet the performance standard.

RPTEC/TERT1 cells = test: Nephrotoxicity, RT-qPCR of kidney damage biomarkers; assay type: cell-based, human; conditions: up to 100 µM
Method: RPTEC/TERT1 cells were seeded at a concentration of 2 × 10^5 cells/ml in ProxUp2 medium into 60 mm Petri dishes. After 24 h, the cells were washed with PBS and […] metabolites (100 μM) were applied in fresh ProxUp2 medium. The cells were incubated with samples for 48 h, after which the cells were washed with PBS and dishes were frozen in - 160 °C. The RNA was isolated using RNeasy Plus Mini Kit (Qiagen, Hilden, Germany). The RNA concentration and purity was determined with NanoDrop One (ThermoFisher Scientific) spectrophotometr. The cDNA synthesis was performed from 0.1 μg of total RNA with an iScript Reverse Transcription Supermix (Bio-Rad, Hercules, California, USA). Quantitative real-time PCR (qPCR) was performed using the qPCR Bio-Rad C100 Touch System (Bio-Rad) with a 96-well block. The reaction mixture consisted of 1 μl of specific 20 × PrimePCR Assay (Bio-Rad), 10 μl of 2 × SsoAdvance Universal Supermix (Bio-Rad), 2 μl of cDNA sample, 7 μl of nuclease-free water. The final reaction volume was 20 μl. […] Cycling parameters were: initial denaturation at 95 °C for 2 min, followed by 40 cycles of 95 °C for 5 s and 60 °C for 30 s. Fluorescence values were acquired after each extension phase. Samples were analyzed in triplicate, and samples with a standard deviation of duplicates > 0.2 Ct were re-analyzed. A non-template control containing nuclease-free water instead of cDNA as well as non-RT control containing purified RNA without reverse transcription was used. The real-time PCR study followed the MIQE guidelines. Relative transcript levels of the estimated genes in the cell lines were compared using the software CFX Maestro Software 2.3 (Bio-Rad).

NRF2-ARE signal pathway = NRF2-ARE signal pathway activation, luciferase reporter in transfected HEK293; assay type: cell-based, human; conditions: HEK293, 100 µM (Table 1), 18 h
Text: […]. HEK293 cells were transiently transfected with reporter plasmid pGL4.32 (luc2P/NF-κB-RE/Hygro, Promega Corporation, Madison, Wisconsin, USA) or pGL4.37 (luc2P/NRF2-ARE/Hygro) using FuGENE (Promega Corporation). Plasmid pEGFP-C1 carrying the gene for green fluorescent protein (GFP) was co-transfected with the reporter plasmids as a normalization plasmid enabling normalization of the signal to transfection level. To test the activation of NF-κB pathway, TNFα (in the range from 13 to 200 pg/ml) as a positive control or samples (50 µM) were incubated with the cells for 5 h. […] The fluorescence (488/513 nm) was determined using SpectraMax i3x Multi-Mode Microplate Reader (Molecular Devices, San Jose, California, USA). Subsequent quantification of luciferase activity was performed using the Bright-Glo™ Luciferase Assay System (Promega Corporation) according to the manufacturer’s instructions.

[2] = tested on: complexes I and II of the electron transport chain; conditions: cited from earlier work
HepG2 cells = conditions: HepG2, 100 µM ref 2; cited from earlier work
NIH3T3 cells = conditions: NIH3T3 ref 2; cited from earlier work
MCF7 cells = conditions: MCF7 ref 2; cited from earlier work
[3] = set-up: method as in PMID 24239523; conditions: concentrations up to 500 μM ref 5; cited from earlier work
[4] = tested on: MCF-7 human breast cancer cells; conditions: cited from earlier work
[5] = tested on: ARE-Nrf2 luciferase (KeratinoSens); set-up: method as in PMID 23576290; conditions: cited from earlier work
[6] = set-up: method as in earlier work; conditions: rat, 1% p-BMHCA in ethanol, 120 µg substance/cm^2, 16 h ref 4; cited from earlier work
[7] = tested on: Chinese hamster lung and human colonic epithelial cells; set-up: method as in PMID 32461162, PMID 24239523; conditions: in vitro ref 3, 5; cited from earlier work
rats = conditions: rat, in vivo; cited from earlier work
[8] = tested on: S. typhimurium and E. coli, CHO and Chinese hamster V79 cells; conditions: cited from earlier work
[9] = tested on: fertilized eggs of white turkey (Meleagris gallopavo); conditions: 10 mg/egg ref 6; cited from earlier work
Salmonella strains = conditions: up to 5000 µg/plate with or without metabolic activation ref 4; cited from earlier work
CHO-K1 cells = test: Cytotoxicity, cell viability (resazurin assay), CHO-K1, with or without S9 mix; conditions: 1 day

CC(C=O)Cc1ccc(C(C)(C)C)cc1 (stereo not shown) [Lilial, 3-(4-(tert-butyl)phenyl)-2-methylpropanal]
recovery at 4 h, 1 mM ([1]; Caco-2, lilial 1 mM, 4 h, all compartments): ~80% | Papp at 4 h, 1 mM ([1]; Caco-2, read-out: Papp (apparent permeability coefficient)): 21 ×10⁻⁶ cm/s | Lilial (%) in Caco-2 cells (Caco-2 cells): 13.1 ± 5.2% | Lilial (%) in apical medium (Caco-2 cells): 32.3 ± 2.0% | Lilial (%) in basolateral medium (Caco-2 cells): 34.1 ± 3.4% | Recovery (Caco-2 cells; all compartments): 79.5% | Androgenic activity (agonist) result (androgen receptor): Non active up to 100 µM | Androgenic activity (agonist) result (androgen receptor; listed as lilial): no activity was detected | Nephrotoxicity result (RPTEC/TERT1 cells): Non nephrotoxic | Nephrotoxicity result (RPTEC/TERT1 cells; listed as lilial): not toxic; also recorded: neither lilial, nor its metabolites, demonstrated nephrotoxic activity | NRF2-ARE signal pathway activation result (NRF2-ARE signal pathway): Non activator | NRF2-ARE signal pathway activation result (NRF2-ARE signal pathway; listed as lilial): neither the NF-kB (Fig. 7) nor NRF2 (Fig. 8) signalling pathway was activated | Effect on complexes I and II of the electron transport chain [2]: inhibit complexes I and II | Decrease in cell viability (HepG2 cells): 23% | Effect on cell viability (NIH3T3 cells): no negative effect | Effect on cell viability (MCF7 cells): no negative effect | Genotoxicity at the chromosomal level (clastogenicity or aneuploidy) or single-strand breaks [3]: did not induce genotoxicity | Estrogenic activity (expression of transfected reporter and endogenous pS2 gene) ([4]; MCF7 in vitro ref 8): very weak estrogenic activity | Cell doublings ([4]; lilial 100 µM, estrogen 10 nM, unaffected control 1.8 doublings ref 8): 2.4 doublings | KeratinoSens assay result [5]: negative | In vitro dermal absorption [6]: 78.4% | Mutagenicity in mammalian cell gene mutation assay [7]: not mutagenic | Oral dose that reduced body weight, gave clinical and systemic toxicity (rats): ≥ 50 mg/kg/day | Genotoxic and mutagenic potential [8]: No genotoxic and mutagenic potential | DNA strand breaks in the comet assay [9]: 2.0 fold | Mutagenic activity, Ames test (Salmonella strains): increased number of revertant colonies were detected only for the Salmonella strain TA1535, but it was not reproducible | Toxic concentration (CHO-K1 cells; 5 nm–500 µM, without S9): ≥ 250 µM | Cytotoxicity result after metabolization by the S9 mix (CHO-K1 cells; up to 500 µM, with S9 mix): no cytotoxicity
